Results on two compounds are retold here after patent US6001799A, “Method of treating hepatitis C in non-responders to interferon treatment” (SciClone Pharmaceuticals, Inc., priority 1993, dated 1999).

The test system of data set [1] is HCV-related diseases. Conditions: in vivo; cited from earlier work.
Data set [2] relates to Hepatitis C. In words: Treatment of Hepatitis C patients with Thymosin α-1 during α-IFN administration (Example 6). Conditions: after 6 months. It is filed as in vivo, human. The method, then:
The course of the disease and its response to drug treatments may be followed by clinical examination and laboratory findings.
Efficacy of Thymosin α-1 for treatment of Hepatitis C was shown in two Hepatitis C patients who were previous non-responders to α-interferon. These two patients were treated with Thymosin α-1 by subcutaneous injection of 1 mg thereof twice weekly, during administration three times weekly of 2 million units of α-IFN. […] In three additional Hepatitis C patients treated as above, serum ALT levels were reduced 50% after 6 months.

In data set [3] the test system is response to influenza vaccine. Conditions: cited from earlier work.
Data set [4] has as its system Woodchuck Hepatitis Virus. Particulars: infected woodchuck; cited from earlier work.
The subject of data set [5] is hepatitis B virus (HBV). Particulars: treated for a year, cited from earlier work.
Data set [6] has as its system nonsmall cell lung cancer. Particulars: both THNα1 treatment groups; cited from earlier work.

Where no end group is shown, it is not given here.

For `Nc1nc2c(ncn2COCCO)c(=O)[nH]1` [acyclovir], in data set [1], the “effectiveness in halting or slowing progression of HCV-related diseases” value was “ineffective”.

Take “Thymosin α-1 (SDAAVDTSSEITTKDLKEKKEVVEEAEN; ends and bridges not checked; UniProt P06454 2-29, looked up)”: in data set [2] (six additional Hepatitis C patients, same regimen with α-IFN), the “reduction of serum ALT (threshold not achieved)” value is recorded as under 50%. In data set [2] (six other Hepatitis C patients, same regimen with α-IFN), the “response to treatment (serum ALT levels reduced to normal)” value is reported as “complete response”. Also, the “serum ALT levels reduced” value in data set [2] (three additional Hepatitis C patients, same regimen with α-IFN) is given as 50%. In addition, the “reduction of serum alanine transaminase (ALT)” value in data set [2] (two patients, previous non-responders to α-interferon, 1 mg s.c. twice weekly during 2 million units α-IFN three times weekly) is on record as 50%. Further, the antibody to influenza result in data set [3] (s.c. twice weekly from vaccination, six weeks post-vaccine) is given as “higher levels of antibody to influenza than controls”. Moreover, the “toxicity in drug recipients” value in data set [3] (s.c. twice weekly) is “No clinical or biochemical toxicity”. Besides, in data set [4], the clinical parameters result was “no improvement” and the “viral DNA replication” value is given as “suppressed viral DNA replication”. Besides, the “serum ALT” value in data set [5] (THNα1 5 patients, TF-5 2 patients) is on record as “marked decrease”. In data set [5] (THNα1 and TF-5 patients pooled), the “patients initially positive for HBSAg who cleared this antigen” value is on record as 5 of 6 and the “patients with reduced levels of serum HBV DNA” value was 6 of the 7. For the same compound, the “relapse-free survival and overall survival versus placebo group” value in data set [6] is “greater”.
